In US20230365571A1, “COMPOUNDS AND COMPOSITIONS AS Sppl2a INHIBITORS” (Novartis AG, priority 2020, published 2023):
pIC50: −log10 of the molar value.

What was measured:
Format in all cases: cell-based
Sppl2a CD74 = molecular target: T1, Sppl2a CD74 (Mus musculus, UniProt Q9JJF9); test: CD74/p8 mouse whole blood assay, flow cytometry format; settings: Balb/c mouse whole blood, 5 h, CD74 signal on gated live B cells
T1 construct: Mouse whole blood Balb/c mice (sodium citrate) was ordered by Bioreclamation LLC; tissue Bioreclamation LLC
T1 sequence (Q9JJF9 26-523): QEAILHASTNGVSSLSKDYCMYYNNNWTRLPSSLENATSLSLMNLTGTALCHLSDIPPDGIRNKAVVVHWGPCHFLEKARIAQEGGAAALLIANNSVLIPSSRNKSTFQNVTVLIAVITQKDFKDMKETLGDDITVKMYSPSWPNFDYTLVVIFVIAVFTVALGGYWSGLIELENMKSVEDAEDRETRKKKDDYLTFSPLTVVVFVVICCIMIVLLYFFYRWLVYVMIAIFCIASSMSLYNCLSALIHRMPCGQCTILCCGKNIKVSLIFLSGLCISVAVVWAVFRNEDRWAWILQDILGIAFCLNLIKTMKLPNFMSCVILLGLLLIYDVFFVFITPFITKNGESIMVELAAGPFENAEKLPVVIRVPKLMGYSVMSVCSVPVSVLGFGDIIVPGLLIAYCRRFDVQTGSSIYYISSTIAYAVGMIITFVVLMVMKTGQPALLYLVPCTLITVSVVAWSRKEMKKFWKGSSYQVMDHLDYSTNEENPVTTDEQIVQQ
Method: CD74/p8 Mouse Whole Blood Assay: Flow Cytometry Format
Mouse whole blood Balb/c mice (sodium citrate) was ordered by Bioreclamation LLC; USA. The blood was used the next day upon receipt (stored at 4° C.). 100 μL blood were transferred in 96 well format plate, where compounds, an 11 point dilutions down from 30 μM, to be tested were previously deposited. The plate was incubated for 5 h in the incubator at 37° C., 5% CO2 under continuous motion. After the incubation the blood was diluted with RBC Lysis Buffer (Amined; Cat. Nr 3-13F00-H or BD; Cat. Nr 555899). The solution was mixed by pipetting and incubated 10 min in the 37° C. incubator. The white blood cells were sedimented for 3 min at 2000 rpm. After removing the supernatant the cell pellet was resuspended and washed twice in RCB Buffer and kept≈ 5 min at room temperature, followed by a centrifugation for 2 min at 2000 rpm. The cell pellet was then resuspend in D-PBS and centrifuged twice. Finally, the cells were taken up in of D-PBS/0.5% inactivated fetal bovine serum/2 mM EDTA. The cell suspension was treated with Live/Dead fixable stain (Life Technologies, >470 nm version), B cells were identified by surface staining with an anti-B220 antibody coupled to APC fluorofor. After staining, the cells were extensively washed with PBS. The cells were permeabilized and fixed in FACS lysing buffer; (BD; #349202, dil 1:10 in water) and labelled with an anti CD74, FITC labelled antibody, washed once more with diluted FACS lysing buffer and spin down. The cell pellet was washed with D-PBS/0.5% inactivated fetal bovine serum/2 mM EDTA and PBS prior to the analysis in a flow cytometer. The compound concentrations were plotted against the intensity (medium fluorescence intensity) of the CD74 signal on the gated life B cell and IC50 were determined by fitting data for a 11 concentrations dose response.

human SPPL2a [1] = molecular target: T2, human SPPL2a (Homo sapiens, UniProt Q8TCT8); test: Sppl2a TL (translocation) imaging assay in U-2 OS cells; design: expressed in transfected cells; settings: U-2 OS cells expressing human SPPL2a and EGFP-TNFα(aa1-76) NTF substrate; 24 h
T2 sequence (Q8TCT8 26-520): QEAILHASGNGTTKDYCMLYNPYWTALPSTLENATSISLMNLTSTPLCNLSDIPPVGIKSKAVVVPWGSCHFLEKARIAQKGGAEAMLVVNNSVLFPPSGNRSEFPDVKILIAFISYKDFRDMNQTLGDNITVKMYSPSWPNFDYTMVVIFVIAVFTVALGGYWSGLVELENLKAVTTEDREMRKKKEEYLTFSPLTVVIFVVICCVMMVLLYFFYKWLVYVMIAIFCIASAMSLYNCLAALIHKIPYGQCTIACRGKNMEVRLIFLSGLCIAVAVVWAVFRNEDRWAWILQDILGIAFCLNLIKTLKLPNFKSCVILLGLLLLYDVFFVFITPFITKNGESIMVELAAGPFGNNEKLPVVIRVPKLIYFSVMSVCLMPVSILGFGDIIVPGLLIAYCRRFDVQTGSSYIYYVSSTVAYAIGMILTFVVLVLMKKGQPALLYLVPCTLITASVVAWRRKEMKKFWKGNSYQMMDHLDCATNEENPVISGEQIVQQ
In short: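 U-2 OS cells stably expressing human SPPL2a plus doxycycline-induced EGFP-TNFα(aa1-76) NTF, treated 24 h at 37 °C with inhibitor (100 μM–1 nM, 11 points, 0.9% DMSO, 5 μg/mL doxycycline). Imaging of nuclear-minus-cytoplasmic EGFP intensity; % inhibition versus 0.5 μM LY-411,575 and DMSO, IC50 by nonlinear regression; CC50 from cell count.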

human SPPL2a [2] = molecular target: T2, human SPPL2a; test: Sppl2a RGA (reporter gene assay) in HEK293 cells; design: expressed in transfected cells; host or cells: HEK293 (transient); settings: NT-TNF-VP16-Gal4 substrate, Gal4-luciferase reporter, 24 h
In short: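 HEK293 cells transiently co-transfected with human SPPL2a, NT-TNF-VP16-Gal4 substrate and Gal4-luciferase reporter, compound added within 5 h. After 24 h at 37 °C, luciferase luminescence measured; IC50 from concentration versus normalized luminescence.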

| SMILES | pIC50 (Sppl2a CD74) | pIC50 (human SPPL2a [1]) | pIC50 (human SPPL2a [2]) |
| --- | --- | --- | --- |
| CC(C)C(=O)Nc1cc(NC(=O)C[C@H](C(=O)N[C@@H]2C(=O)N3CC4(CC4)CN3C(=O)c3ccccc32)C2CCC2)n(C)n1 [Example 82, (S)-2-Cyclobutyl-N^1-((S)-5,11-dioxo-10,11-dihydro-1H,3H,5H-spiro[benzo[d]pyrazolo[1,2-a][1,2]diazepine-2,1′-cyclopropan]-10-yl)-N^4-(3-isobutyramido-1-methyl-1H-pyrazol-5-yl)succinamide] | 5.73 | 8.05 | 7.44 |
| CC[C@H](CNC(=O)c1sc(C2=CCOCC2)nc1Cl)C(=O)N[C@@H]1C(=O)N2CCCN2Cc2ccccc21 [Example 46, 4-Chloro-2-(3,6-dihydro-2H-pyran-4-yl)-N-((R)-2-(((S)-11-oxo-2,3,10,11-tetrahydro-1H,5H-benzo[d]pyrazolo [1,2-a][1,2]diazepin-10-yl)carbamoyl)butyl) thiazole-5-carboxamide] | 5.57 | 7.10 | 7.27 |
| Cc1nc(C(=O)NCC(F)F)sc1C(=O)NC[C@@H](C)C(=O)N[C@@H]1C(=O)N2CCCN2Cc2ccccc21 [Example 21, N^2-(2,2-Difluoroethyl)-4-methyl-N^5-((R)-2-methyl-3-oxo-3-(((S)-11-oxo-2,3,10,11-tetrahydro-1H,5H-benzo[d]pyrazolo [1,2-a][1,2]diazepin-10-yl)amino)propyl) thiazole-2,5-dicarboxamide] | 5.23 | 7.89 | 8.15 |
| CC[C@H](CNC(=O)c1c(C)noc1C(F)(F)F)C(=O)N[C@@H]1C(=O)N2CCCN2Cc2ccccc21 [Example 17, 3-Methyl-N-((R)-2-(((5)-11-oxo-2,3,10,11-tetrahydro-1H,5H-benzo[d]pyrazolo [1,2-a][1,2]diazepin-10-yl)carbamoyl)butyl)-5-(trifluoromethyl) isoxazole-4-carboxamide] | 5.63 | 7.96 | 8.30 |
| CNC(=O)c1nc(C)c(C(=O)NC[C@@H](C)C(=O)N[C@@H]2C(=O)N3CCCN3Cc3ccccc32)s1 [Example 1, N^2,4-dimethyl-N^5—((R)-2-methyl-3-oxo-3-(((S)-11-oxo-2,3,10,11-tetrahydro-1H,5H-benzo[d]pyrazolo[1,2-a][1,2]diazepin-10-yl)amino)propyl)thiazole-2,5-dicarboxamide] | 6.45 | 7.62 | 7.54 |
| CC[C@H](CNC(=O)c1sc(C(=O)NC(C)C)nc1C)C(=O)N[C@@H]1C(=O)N2CCCN2Cc2ccccc21 [Example 19, N^2-Isopropyl-4-methyl-N^5-((R)-2-(((S)-11-oxo-2,3,10,11-tetrahydro-1H,5H-benzo[d]pyrazolo [1,2-a][1,2]diazepin-10-yl)carbamoyl)butyl) thiazole-2,5-dicarboxamide] | 6.09 | 7.92 | 8.22 |
| C[C@H](CC(=O)Nc1cc(NC(=O)C(C)(C)C)nn1C)C(=O)N[C@@H]1C(=O)N2CCCN2Cc2ccccc21 [Example 89, (R)-2-Methyl-N^4-(1-methyl-3-pivalamido-1H-pyrazol-5-yl)-N^1-((S)-11-oxo-2,3,10,11-tetrahydro-1H,5H-benzo[d]pyrazolo [1,2-a][1,2]diazepin-10-yl)succinamide] | 6.19 | 7.96 | 7.22 |
| Cn1nc(-c2cc(C3CC3)no2)cc1NC(=O)C[C@H](C(=O)N[C@@H]1C(=O)N2CC3(CC3)CN2C(=O)c2ccccc21)C1CC1 [Example 103, (S)-2-Cyclopropyl-N^4-(3-(3-cyclopropylisoxa-zol-5-yl)-1-methyl-1H-pyrazol-5-yl)-N^1-((S)-5,11-dioxo-10,11-dihydro-1H,3H,5H-spiro[benzo[d]pyr-azolo[1,2-a][1,2]diazepine-2,1″- cyclopropan]-10-yl)succinamide] | 5.90 | 7.77 | 7.89 |

Molecules with a higher pIC50 (Sppl2a CD74), results first:

| pIC50 (Sppl2a CD74) | pIC50 (human SPPL2a [1]) | pIC50 (human SPPL2a [2]) | SMILES |
| --- | --- | --- | --- |
| 6.92 | 8.52 | 8.70 | CCNC(=O)c1nc(C)c(C(=O)NC[C@H](C(=O)N[C@@H]2C(=O)N3CCCN3Cc3ccccc32)C(F)(F)F)s1 [Example 7, N^2-Ethyl-4-methyl-N^5-((R)-3,3,3-trifluoro-2-(((S)-11-oxo-2,3,10,11-tetrahydro-1H,5H-benzo[d]pyrazolo [1,2-a][1,2]diazepin-10-yl)carbamoyl)pro-pyl)thiazole-2,5-dicarboxamide] |
| 6.87 | 8.70 | 8.70 | Cc1nc(C(=O)NC(C)C)sc1NC(=O)C[C@@H](C)C(=O)N[C@@H]1C(=O)N2CCCN2Cc2ccccc21 [Example 66, (R)-N^4-(2-(Isopropylcarba-moyl)-4-methylthiazol-5-yl)-2-methyl-N^1-((S)-11-oxo-2,3,10,11-tetrahydro-1H,5H-benzo[d]pyrazolo [1,2-a][1,2]diazepin-10-yl)succinamide] |
| 6.80 | 8.52 | 8.40 | CNC(=O)c1nc(C)c(C(=O)NC[C@H](C(=O)N[C@@H]2C(=O)N3CCCN3Cc3ccccc32)C2CC2)s1 [Example 9, N^5-((R)-2-Cyclopropyl-3-oxo-3-(((S)-11-oxo-2,3,10,11-tetrahydro-1H,5H-benzo[d]pyrazolo [1,2-a][1,2]diazepin-10-yl)amino)propyl)-N^2,4-dimethylthiazole-2,5-dicarboxamide] |
| 6.55 | 6.90 | 7.66 | CCOc1nc(C)c(C(=O)NC[C@@H](CC)C(=O)N[C@@H]2C(=O)N3CCCN3Cc3ccccc32)s1 [Example 53, 2-Ethoxy-4-methyl-N-((R)-2-(((S)-11-oxo-2,3,10,11-tetrahydro-1H,5H-benzo[d]pyrazolo [1,2-a][1,2]diazepin-10-yl)carbamoyl)butyl) thiazole-5-carboxamide] |
| 6.69 | 8.00 | 7.66 | CCn1nc(-c2ccco2)cc1NC(=O)C[C@@H](C)C(=O)N[C@@H]1C(=O)N2CCCN2Cc2ccccc21 [Example 85, (R)-N^4-(1-Ethyl-3-(furan-2-yl)-1H-pyrazol-5-yl)-2-methyl-N^1-((S)-11-oxo-2,3,10,11-tetrahydro-1H,5H-benzo[d]pyrazolo [1,2-a][1,2]diazepin-10-yl)succinamide] |
| 7.00 | 9.30 | 8.52 | Cc1nc(NC(=O)C(C)C)sc1C(=O)NC[C@H](C(=O)N[C@@H]1C(=O)N2CCCN2Cc2ccccc21)C(F)(F)F [Example 3, 2-Isobutyramido-4-methyl-N-((R)-3,3,3-trifluoro-2-(((S)-11-oxo-2,3,10,11-tetrahydro-1H,5H-benzo[d]pyrazolo [1,2-a][1,2]diazepin-10-yl)carbamoyl)pro-pyl)thiazole-5-carboxamide] |
